In patent US20240059719A1, “GOLD COMPLEXES AS ANTICANCER AGENT” (King Saud University, priority 2023, published 2024):

How the values were obtained:
Type in all cases: cell-based
MCF-7 cells [1] = test: Intracellular ATP analysis (colorimetric ATP assay kit); settings: 0-100 μM, 12 h
Procedure: The intracellular ATP levels were determined after the exposure of PBTDG and erlotinib (0-100 μM) to MCF-7 cells for 12 h using a colorimetric ATP assay kit (Sigma-Aldrich, USA) according to the manufacturer instructions. The unknown concentrations of the test samples were calculated using the linear standard curve generated from the concentration of 0-12 nmole ATP. […]

[2] = test system: MCF-7 breast cancer cells; test: MTT cell viability analysis (cytotoxicity); settings: Homo sapiens, MCF7, MCF-7 cells, 24 hours treatment
Procedure: MTT (3-(4,5-dimethylthiazol-2-yl)-2,5-diphenyltetrazolium bromide) assay was used for cell viability analysis. MCF-7 breast cancer cells were seeded in a cell culture plate (96-well) at 10^4 cells per well in 200 μl of Dulbecco's modified Eagle medium (DMEM). […] MTT solution (20 μl of 5 mg/mL) was added to each well of the micro plate, which were then incubated in a CO2 incubator at 37° C. for 3 hours. After incubation, the culture medium was removed and 100 μL of isopropanol were added to each well of the micro plate and the absorbance was recorded at 570 nm against reagent blank. The cell viability was calculated using the formula:
Cell viability %=100*(Absorbance sample)/(Absorbance blank)

MCF-7 cells [3] = test: Reactive oxygen species analysis (Muse Oxidative Stress Kit, flow cytometry); settings: 24 h
Procedure: For the analysis of reactive oxygen species (ROS), MCF-7 cells were seeded ([…]) in a 6-well plate and allowed to grow for 24 h at 37° C. under the environment of 5% CO2 and 95% humidity. […] DMS( )served as a negative control. The final DMSO concentration in each well was less than 0.1%. After harvesting the cells, they were stained with Muse® Oxidative Stress Kit (Luminex, IL, USA) following the manufacturer's instructions. The percentage of cells with oxidative stress was measured by flow cytometry analysis.

MCF-7 cells [4] = test: Mitochondrial membrane potential analysis (Muse MitoPotential flow cytometry); settings: 24 hours
Procedure: Muse MitoPotential Flow Cytometry Kit (Luminex, IL, USA) was used for measuring mitochondrial membrane potential (MMP). MCF-7 cells were seeded (15000 cells per well) in a 6-wells culture plate. […] A negative control (DMSO) was run in parallel. Finally, the cells were stained with Mito Potential reagents provided in the kit, following the manufacturer's instructions, and then analyzed by flow cytometry.

Row | Compound | Effect on intracellular ATP levels (MCF-7 cells [1]) | IC50 [2] [µM] | ROS generation (MCF-7 cells [3]; 1 μM) [%] | ROS generation (MCF-7 cells [3]; 5 μM) [%] | Mitochondrial membrane depolarization (MCF-7 cells [4]; 1.0 μM) [%] | Mitochondrial membrane depolarization (MCF-7 cells [4]; 5.0 μM) [%]
1 | C#Cc1cccc(Nc2ncnc3cc(OCCOC)c(OCCOC)cc23)c1 [erlotinib] | depleted |  |  |  |  | 
2 | CNC(=O)c1cc(Oc2ccc(NC(=O)Nc3ccc(Cl)c(C(F)(F)F)c3)cc2)ccn1 [sorafenib] |  | 4.45 | 73.76 | 122.11 | 2.7 | 12.0
